Laboratory results from patent US4341868A, “Method and test composition for the determination of the substrate for xanthine oxidase” (Kyowa Hakko Kogyo Co., Ltd., priority 1978, dated 1982).
Counter-ions that a name gives are not always drawn. Like-named read-outs stand apart in the source and are kept apart here. One block for each compound: values may come before it.

What was measured:
xanthine oxidase [1] = assay: Substrate specificity (formed hydrogen peroxide, Method II); assay type: biochemical, Enterobacter cloacae; settings: for Relative activity: activity on xanthine defined as 100, 0.1 ml of 5 mM substrate, 0.25 U/ml enzyme, pH 7.3, 37° C.; for activity of xanthine oxidase on substrate (in words): conclusion from Table 1
Description: After completion of the reaction, the absorbancy of the reaction solution is measured at 500 nm. Molecular extinction coefficient of quinoneimine pigment formed in the reaction is 5.33×10^3 (Clinical Chemistry 20, 470, 1974). When a unit of enzyme activity is defined as the activity of enzyme which forms 1 μmol of hydrogen peroxide in one minute at 37° C. and at a pH of 7.3, the unit (U) of xanthine oxidase is as follows:
The same procedures as in Method II are repeated except that 0.25 U/ml xanthine oxidase and 0.1 ml of 5 mM solutions of various substrates are used, and the amount of the formed hydrogen peroxide is determined.

xanthine oxidase [2] = assay: Examples 2 and 3: xanthine oxidase activity with nucleic acid compound added to the medium; assay type: cell-based, Enterobacter cloacae KY 3066
Description: In this example, 40 ml of the medium (pH 7.2) containing 0.5 g/dl yeast extract, 0.5 g/dl corn steep liquor, 0.1 g/dl peptone, 0.05 g/dl KH2 PO4, 0.1 g/dl K2 HPO4, […] and is sterilized at 120° C. for 15 minutes. One loopful of the seed culture of Enterobacter cloacae KY 3066 is inoculated into the medium and culturing is carried out at 30° C. for 48 hours.
The microbial cells are recovered from the culture liquor by centrifugation and are suspended in 20 ml of the buffer. The suspension is subjected to ultrasonic disintegration.

xanthine oxidase [3] = assay: Experiment 3: electron acceptor of the present enzyme; assay type: biochemical, Enterobacter cloacae
Description: 0.15 ml of 10 mM xanthine aqueous solution, 1.0 ml of 100 mM tris-hydrochloride buffer (pH 7.3), 0.65 ml of water and 1 ml of various electron acceptors shown in Table 3 are mixed. The mixture and a solution of xanthine oxidase obtained in Example 1 are incubated at 37° C. and then nitrogen gas is introduced into the mixture and the enzyme solution for 3~4 minutes to remove dissolved oxygen.
Then, 0.2 ml of 0.25 U/ml xanthine oxidase is added to 2.8 ml of the reaction mixture to initiate the reaction and the absorbancy is measured every 15 seconds. The values obtained during one minutes of 30 to 90 seconds after the addition of xanthine oxidase is used as data.
When oxygen is used as an acceptor, nitrogen gas is not introduced into the mixture and the reaction product, uric acid obtained using dissolved oxygen is determined by measuring the absorbancy at 295 nm.

[4] = test system: xanthine oxidase derived from milk; settings: ferricyanide 100; cited from earlier work
xanthine oxidase [5] = assay: Inhibition of xanthine oxidase (Method I); assay type: biochemical, Enterobacter cloacae; settings: for inhibition of xanthine oxidase (in words): conclusion from Table 2
Description: The reaction is carried out at 37° C. for ten minutes. […] The thus obtained value is defined as OD283. This value corresponds to the amount of uric acid formed.
Since the reaction product, uric acid has a maximum absorption at 283 nm in acidic region and the molecular extinction coefficient is 1.238×10^4 (Analytical Biochemistry 38, 65, 1970), the unit (U) of xanthine oxidase is as follows:
One unit of enzyme activity is defined as the activity of enzyme which forms 1 μmol of uric acid in one minute at 37° C. and at a pH of 7.3.
Xanthine oxidase activity is determined in the same manner as in Method I except that 0.25 U/ml xanthine oxidase solution is used and various enzyme inhibitors are added.

[6] = pH 7.3
Description: Hypoxanthine is oxidized by the action of the present enzyme and the formed hydrogen peroxide is reacted with a coloring reagent.
The enzyme-containing solution is subjected to reaction at 37° C. and the absorbancy of the reaction solution colored by the formation of quinoneimine derived from hydrogen peroxide is measured at 500 nm at regular intervals.
The solution is subjected to reaction at 37° C. and the absorbancy of the reaction solution is measured at 293 nm at regular intervals.

xanthine oxidase [7] = assay type: biochemical, Enterobacter cloacae
Description: As a coloring solution, 0.1 M tris-hydrochloride buffer (pH 7.3) containing 10 mmol/l 4-aminoantipyrine, 10 mmol/l phenol and 490 U/100 ml peroxidase is prepared. […] The absorbancy of the reaction solution is measured at 500 nm.

xanthine oxidase [8] = test system: xanthine oxidase
Description: The coloring solution is prepared by adding 445 U/100 ml peroxidase to 0.1 M tris-hydrochloride buffer (pH 7.3) containing 10 mmol/l 4-aminoantipyrine and 10 mmol/l phenol.
In this experiment, 40 ml of medium (pH 7.2) comprising hypoxanthine having concentrations indicated in Table 4, 0.5 g/dl yeast extract, 0.5 g/dl corn steep liquor, 0.1 g/dl peptone, 0.05 g/dl KH2 PO4, 0.1 g/dl K2 HPO4 and 0.05 g/dl MgSO4.7H2 O is poured into Sakaguchi flask and is sterilized at 120° C. for 15 minutes.
One loopful of the seed culture of Enterobacter cloacae KY 3066, FERM P 4077, NRRL B-11155 in a slant is inoculated into the medium and culturing is carried out with shaking at 30° C. for 48 hours.
After completion of the culturing, the culture liquor is subjected to centrifugation at 10,000 r.p.m for 15 minutes (hereinafter centrifugation is carried out under this condition) to obtain microbial cells. The thus obtained cells are suspended in 20 ml of 50 mM tris-hydrochloride buffer (pH 8.0) and then disrupted for ten minutes in an ultrasonic disintegration (Ultrasonic Generator KMS-250 type, made by Kubota Seisaku-sho). The resulting disrupted cell suspension is centrifuged to obtain a supernatant. Xanthine oxidase activity of the supernatant is determined according to the Determination Method II and the results are shown in Table 4 below.

- Relative activity (xanthine oxidase [1]): 23.3%
- activity of xanthine oxidase on substrate (in words) (xanthine oxidase [1]): strong activity
Compound: c1ncc2[nH]cnc2n1 [Purine]

- Relative activity (xanthine oxidase [1]): 0%
Compound: Cn1cnc2c1c(=O)[nH]c(=O)n2C [Theobromine]

- Relative activity (xanthine oxidase [3]; acceptor 0.1 mM, 340 nm): 0%
Compound: NC(=O)c1ccc[n+]([C@@H]2O[C@H](COP(=O)([O-])OP(=O)(O)OC[C@H]3O[C@@H](n4cnc5c(N)ncnc54)[C@H](OP(=O)(O)O)[C@@H]3O)[C@@H](O)[C@H]2O)c1 [NADP]

- Relative activity (xanthine oxidase [1]): 88.5%
- activity of xanthine oxidase on substrate (in words) (xanthine oxidase [1]): strong activity
Compound: Oc1ncc2[nH]cnc2n1 [2-Hydroxypurine]

- Relative activity (xanthine oxidase [3]; acceptor 0.1 mM, 340 nm): 0%
Compound: NC(=O)c1ccc[n+]([C@@H]2O[C@H](COP(=O)([O-])OP(=O)(O)OC[C@H]3O[C@@H](n4cnc5c(N)ncnc54)[C@H](O)[C@@H]3O)[C@@H](O)[C@H]2O)c1 [NAD]
- Relative activity [4]: < 1.3

- inhibition of xanthine oxidase (in words) (xanthine oxidase [5]): inhibitors of xanthine oxidase
- Inhibition rate (xanthine oxidase [5]; inhibitor 1 × 10^-3 M): 88.9%
- Inhibition rate (xanthine oxidase [5]; inhibitor 1 × 10^-4 M): 82.7%
- Inhibition rate (xanthine oxidase [5]; inhibitor 1 × 10^-5 M): 61.7%
- Inhibition rate (xanthine oxidase [5]; inhibitor 1 × 10^-6 M): 0%
Compound: O=C1O[C@H]([C@@H](O)CO)C(O)=C1O [L-ascorbic acid]

- Relative activity (xanthine oxidase [1]): 0%
Compound: NC(=O)C1=CN([C@@H]2O[C@H](COP(=O)(O)OP(=O)(O)OC[C@H]3O[C@@H](n4cnc5c(N)ncnc54)[C@H](O)[C@@H]3O)[C@@H](O)[C@H]2O)C=CC1 [NADH]

- Relative activity (xanthine oxidase [1]): 4.4%
Compound: Sc1ncnc2nc[nH]c12 [6-mercaptopurine]

- Relative activity (xanthine oxidase [1]): 0%
Compound: O=c1[nH]c(=O)c2ncn([C@@H]3O[C@H](CO)[C@@H](O)[C@H]3O)c2[nH]1 [Xanthosine]
- Xanthine oxidase (xanthine oxidase [2]; amount of addition 0.57 g/dl): 0.20 U/ml

- Relative activity (xanthine oxidase [1]): 0%
Compound: OC[C@H]1O[C@@H](n2cnc3c(O)ncnc32)[C@H](O)[C@@H]1O [Inosine]
- Xanthine oxidase (xanthine oxidase [2]; amount of addition 0.54 g/dl): 0.20 U/ml

- Relative activity (xanthine oxidase [1]): 0%
Compound: Nc1nc2c(ncn2[C@@H]2O[C@H](CO)[C@@H](O)[C@H]2O)c(=O)[nH]1 [Guanosine]

The next lines start with the compound.

Compound: Nc1nc2nc[nH]c2c(=O)[nH]1 [Guanine]
- Relative activity (xanthine oxidase [1]): 53.3%
- activity of xanthine oxidase on substrate (in words) (xanthine oxidase [1]): strong activity
- Xanthine oxidase (xanthine oxidase [2]; amount of addition 0.3 g/dl): 0.14 U/ml

Compound: Nc1ncnc2c1ncn2[C@@H]1O[C@H](CO)[C@@H](O)[C@H]1O [Adenosine]
- Relative activity (xanthine oxidase [1]): 2.5%

Compound: O=C1C(Cl)=CC(=Nc2ccc(O)cc2)C=C1Cl [DCPIP, 2,6-sodium salt of dichlorphenol indophenol]
- Relative activity (xanthine oxidase [3]; acceptor 0.04 mM, 600 nm): 9.2%
- Relative activity [4]: 35

Compound: Nc1nc2c(ncn2[C@@H]2O[C@H](COP(=O)(O)O)[C@@H](O)[C@H]2O)c(=O)[nH]1 [Disodium 2,5'-guaninate]
- Xanthine oxidase (xanthine oxidase [2]; amount of addition 0.81 g/dl): 0.30 U/ml

Compound: O=C([O-])c1cc[c]([Hg][Cl])cc1.[Na+] [PCMB, Sodium salt of pchloromercuribenzoic acid]
- inhibition of xanthine oxidase (in words) (xanthine oxidase [5]): inhibitors of xanthine oxidase
- Inhibition rate (xanthine oxidase [5]; inhibitor 1 × 10^-4 M): 76.6%
- Inhibition rate (xanthine oxidase [5]; inhibitor 1 × 10^-5 M): 34.7%
- Inhibition rate (xanthine oxidase [5]; inhibitor 1 × 10^-6 M): 0%

Compound: Cn1c(=O)c2[nH]cnc2n(C)c1=O [Theophylline]
- Relative activity (xanthine oxidase [1]): 0%

Compound: O=O [Oxygen]
- acceptor of the present enzyme (in words) (xanthine oxidase [3]): best acceptor
- Relative activity (xanthine oxidase [3]; dissolved oxygen, 295 nm): 100%
- Relative activity [4]: 83

Compound: O=[N+]([O-])[O-].[Ag+] [AgNO3]
- inhibition of xanthine oxidase (in words) (xanthine oxidase [5]): inhibitors of xanthine oxidase
- Inhibition rate (xanthine oxidase [5]; inhibitor 1 × 10^-4 M): 97.8%
- Inhibition rate (xanthine oxidase [5]; inhibitor 1 × 10^-5 M): 98.2%
- Inhibition rate (xanthine oxidase [5]; inhibitor 1 × 10^-6 M): 54.8%
- Inhibition rate (xanthine oxidase [5]; inhibitor 1 × 10^-7 M): 0%

Compound: O.O.[Cl][Cu][Cl] [CuCl2.2H2 O]
- inhibition of xanthine oxidase (in words) (xanthine oxidase [5]): inhibitors of xanthine oxidase
- Inhibition rate (xanthine oxidase [5]; inhibitor 1 × 10^-4 M): 96.3%
- Inhibition rate (xanthine oxidase [5]; inhibitor 1 × 10^-5 M): 79.6%
- Inhibition rate (xanthine oxidase [5]; inhibitor 1 × 10^-6 M): 12.9%
- Inhibition rate (xanthine oxidase [5]; inhibitor 1 × 10^-7 M): 0%

Compound: O.O.O.O.O.O.O.O=S(=O)([O-])[O-].[Fe+2] [FeSO4.7H2 O]
- inhibition of xanthine oxidase (in words) (xanthine oxidase [5]): inhibitors of xanthine oxidase
- Inhibition rate (xanthine oxidase [5]; inhibitor 1 × 10^-4 M): 92.3%
- Inhibition rate (xanthine oxidase [5]; inhibitor 1 × 10^-5 M): 0%

Compound: xanthine oxidase derived from milk: xanthine oxidase derived from milk (product of Boehringer Mannheim Co.)
- stability of pigment (in words) [6]: then decrease in spite of the continuous formation of uric acid

Compound: Cytochrome C: electron acceptor
- Relative activity (xanthine oxidase [3]; acceptor 0.1 mM, 550 nm): 0%

Compound: O=c1[nH]cnc2nc[nH]c12 [Hypoxanthine]
- Relative activity (xanthine oxidase [1]): 92.3%
- activity of xanthine oxidase on substrate (in words) (xanthine oxidase [1]): strong activity
- [B]/[A] (formed hydrogen peroxide / substrate) (xanthine oxidase [7]): 1.80
- Amount of formed hydrogen peroxide [B] (xanthine oxidase [7]; pH 7.3): 0.27 µmol
- Xanthine oxidase activity (xanthine oxidase [8]; hypoxanthine 0.1 g/dl): 20.0 U/dl
- Xanthine oxidase activity (xanthine oxidase [8]; hypoxanthine 0.2 g/dl): 31.2 U/dl
- Xanthine oxidase activity (xanthine oxidase [8]; hypoxanthine 0.3 g/dl): 47.3 U/dl
- Xanthine oxidase activity (xanthine oxidase [8]; hypoxanthine 0.5 g/dl): 48.4 U/dl
- Xanthine oxidase activity (xanthine oxidase [8]; hypoxanthine 1.0 g/dl): 55.2 U/dl
- Xanthine oxidase activity (xanthine oxidase [8]; hypoxanthine 3.0 g/dl): 49.0 U/dl

Compound: [Cl][Cu] [CuCl]
- inhibition of xanthine oxidase (in words) (xanthine oxidase [5]): inhibitors of xanthine oxidase
- Inhibition rate (xanthine oxidase [5]; inhibitor 1 × 10^-4 M): 90.5%
- Inhibition rate (xanthine oxidase [5]; inhibitor 1 × 10^-5 M): 53.5%
- Inhibition rate (xanthine oxidase [5]; inhibitor 1 × 10^-6 M): 2.2%

Compound: O=c1[nH]c(=O)c2[nH]cnc2[nH]1 [Xanthine]
- Relative activity (xanthine oxidase [1]): 100%
- activity of xanthine oxidase on substrate (in words) (xanthine oxidase [1]): strong activity
- Amount of formed hydrogen peroxide [B] (xanthine oxidase [7]; substrate 0.15 μmol, 0.93 U xanthine oxidase, pH 7.3, 37° C., 20 minutes): 0.14 µmol
- [B]/[A] (formed hydrogen peroxide / substrate) (xanthine oxidase [7]; substrate 0.15 μmol, 37° C., 20 minutes): 0.93
- Xanthine oxidase (xanthine oxidase [2]; amount of addition 0.3 g/dl): 0.13 U/ml

Compound: Nc1ncnc2nc[nH]c12 [Adenine]
- Relative activity (xanthine oxidase [1]): 0%

Compound: O=c1[nH]c(=O)c2[nH]c(=O)[nH]c2[nH]1 [Uric acid]
- Relative activity (xanthine oxidase [1]): 0%
